From US11209582B2, “Composition, curable composition, cured film, near infrared cut filter, infrared transmitting filter, solid image pickup element, infrared sensor, and camera module” (FUJIFILM Corporation, priority 2016, dated 2021)

experiment: Absorption spectrum in solution (absorption maximum λmax, absorption coefficient); format: physicochemical; conditions: not given
Excerpt: It is preferable that the compound represented by Formula (1) is a compound having an absorption maximum in a wavelength range of 700 to 1200 nm. In addition, a ratio A1/A2 of an absorbance A1 at a wavelength of 500 nm to an absorbance A2 at the absorption maximum is preferably 0.1 or lower and more preferably 0.05 or lower. The absorbance of the compound is a value obtained from the absorption spectrum of the compound in the solution. Examples of a measurement solvent used for the measurement of the absorption spectrum of the compound represented by Formula (1) in the solution include chloroform, dimethyl sulfoxide, and tetrahydrofuran. In a case where the compound represented by Formula (1) is soluble in chloroform, chloroform is used as the measurement solvent. In addition, in a case where the compound represented by Formula (1) is not soluble in chloroform and is soluble in dimethyl sulfoxide or tetrahydrofuran, dimethyl sulfoxide or tetrahydrofuran is used as the measurement solvent.

Question: With `COc1ccc2sc(C(C#N)=c3c4c(-c5ccc(O)cc5)n(B(c5ccccc5)c5ccccc5)c(=C(C#N)c5nc6cc(OC)ccc6s5)c4c(-c4ccc(O)cc4)n3B(c3ccccc3)c3ccccc3)nc2c1` [A-15] as the compound, how does the gram absorption coefficient read?
Answer: 200 L/g/cm

Question: What about the molar absorption coefficient of the same compound?
Answer: 185000 L/mol/cm

same assay, conditions: in chloroform

Question: Which “λmax (absorption maximum)” value does the source give for `CCC(C)COc1ccc(-c2c3c(=C(C#N)c4nc5ccc(Cl)cc5s4)n(B(c4ccccc4)c4ccccc4)c(-c4ccc(OCC(C)CC)cc4)c3c(=C(C#N)c3nc4ccc(Cl)cc4s3)n2B(c2ccccc2)c2ccccc2)cc1` (centres unmarked) [A-3] here?
Answer: 786 nm

Question: For `CCC(C)COc1ccc(-c2c3c(=C(C#N)c4nc5cc(OC)ccc5s4)n(B(c4ccccc4)c4ccccc4)c(-c4ccc(OCC(C)CC)cc4)c3c(=C(C#N)c3nc4cc(OC)ccc4s3)n2B(c2ccccc2)c2ccccc2)cc1` (centres unmarked) [A-7], which “λmax (absorption maximum)” value is on record?
Answer: 794 nm

Question: For `CCC(C)COc1ccc(-c2c3c(=C(C#N)c4nc5ccc(OC)cc5s4)n(B(c4ccccc4)c4ccccc4)c(-c4ccc(OCC(C)CC)cc4)c3c(=C(C#N)c3nc4ccc(OC)cc4s3)n2B(c2ccccc2)c2ccccc2)cc1` (centres unmarked) [A-8], which “λmax (absorption maximum)” value is on record?
Answer: 802 nm

Question: For `COc1ccc2sc(C(C#N)=c3c4c(-c5ccc(OC(=O)c6ccccc6)cc5)n(B(c5ccccc5)c5ccccc5)c(=C(C#N)c5nc6cc(OC)ccc6s5)c4c(-c4ccc(OC(=O)c5ccccc5)cc4)n3B(c3ccccc3)c3ccccc3)nc2c1` [A-81], which “λmax (absorption maximum)” value is on record?
Answer: 800 nm

Question: With `CCC(C)COc1ccc(-c2c3c(=C(C#N)c4nc5ccccc5s4)n(B4Oc5ccccc5O4)c(-c4ccc(OCC(C)CC)cc4)c3c(=C(C#N)c3nc4ccccc4s3)n2B2Oc3ccccc3O2)cc1` (centres unmarked) [A-60] as the compound, how does the “λmax (absorption maximum)” value read?
Answer: 717 nm

Question: For `CCC(C)COc1ccc(-c2c3/c(=C(\C#N)c4cnc5ccccc5n4)n(B(c4ccccc4)c4ccccc4)c(-c4ccc(OCC(C)CC)cc4)c3/c(=C(\C#N)c3cnc4ccccc4n3)n2B(c2ccccc2)c2ccccc2)cc1` (centres unmarked) [A-201], which “λmax (absorption maximum)” value is on record?
Answer: 862 nm

Question: Which “λmax (absorption maximum)” value does the source give for `CN1C(=O)c2ccc(C(=O)Oc3ccc(-c4c5c(=C(C#N)c6cnc7cc(Cl)c(Cl)cc7n6)n(B(c6ccccc6)c6ccccc6)c(-c6ccc(OC(=O)c7ccc8c(c7)C(=O)N(C)C8=O)cc6)c5c(=C(C#N)c5cnc6cc(Cl)c(Cl)cc6n5)n4B(c4ccccc4)c4ccccc4)cc3)cc2C1=O` [A-514] here?
Answer: 883 nm

Question: With `CCC(C)COc1ccc(-c2c3c(=C(C#N)c4nc5cc(Cl)ccc5s4)n(B(c4ccccc4)c4ccccc4)c(-c4ccc(OCC(C)CC)cc4)c3c(=C(C#N)c3nc4cc(Cl)ccc4s3)n2B(c2ccccc2)c2ccccc2)cc1` (centres unmarked) [A-2] as the compound, how does the “λmax (absorption maximum)” value read?
Answer: 782 nm

Question: Which “λmax (absorption maximum)” value does the source give for `CCC(C)COc1ccc(-c2c3c(=C(C#N)c4nc5ccccc5s4)n(B(c4ccccc4)c4ccccc4)c(-c4ccc(OCC(C)CC)cc4)c3c(=C(C#N)c3nc4ccccc4s3)n2B(c2ccccc2)c2ccccc2)cc1` (centres unmarked) [A-1] here?
Answer: 780 nm

Question: With `CCC(C)COc1ccc(-c2c3c(=C(C#N)c4nc5ccc(C)cc5s4)n(B(c4ccccc4)c4ccccc4)c(-c4ccc(OCC(C)CC)cc4)c3c(=C(C#N)c3nc4ccc(C)cc4s3)n2B(c2ccccc2)c2ccccc2)cc1` (centres unmarked) [A-5] as the compound, how does the “λmax (absorption maximum)” value read?
Answer: 788 nm

Question: For `CCC(C)COc1cccc(-c2c3c(=C(C#N)c4nc5cc(C)c(C)cc5s4)n(B(c4ccccc4)c4ccccc4)c(-c4cccc(OCC(C)CC)c4)c3c(=C(C#N)c3nc4cc(C)c(C)cc4s3)n2B(c2ccccc2)c2ccccc2)c1` (centres unmarked) [A-30], which “λmax (absorption maximum)” value is on record?
Answer: 795 nm

Question: For `CCC(C)COc1ccc(-c2c3c(=C(C#N)c4nc5cc(C)c(C)cc5s4)n(B(c4ccccc4)c4ccccc4)c(-c4ccc(OCC(C)CC)cc4)c3c(=C(C#N)c3nc4cc(C)c(C)cc4s3)n2B(c2ccccc2)c2ccccc2)cc1` (centres unmarked) [A-6], which “λmax (absorption maximum)” value is on record?
Answer: 794 nm

Question: Which “λmax (absorption maximum)” value does the source give for `CCC(C)COc1cccc(-c2c3c(=C(C#N)c4nc5ccccc5s4)n(B(c4ccccc4)c4ccccc4)c(-c4cccc(OCC(C)CC)c4)c3c(=C(C#N)c3nc4ccccc4s3)n2B(c2ccccc2)c2ccccc2)c1` (centres unmarked) [A-25] here?
Answer: 782 nm

Question: Which “λmax (absorption maximum)” value does the source give for `CCN(CC)CCCN1C(=O)c2ccc(C(=O)Oc3ccc(-c4c5/c(=C(\C#N)c6cnc7cc(Cl)c(Cl)cc7n6)n(B(c6ccccc6)c6ccccc6)c(-c6ccc(OC(=O)c7ccc8c(c7)C(=O)N(CCCN(CC)CC)C8=O)cc6)c5/c(=C(\C#N)c5cnc6cc(Cl)c(Cl)cc6n5)n4B(c4ccccc4)c4ccccc4)cc3)cc2C1=O` [B-644] here?
Answer: 883 nm

Question: Which “λmax (absorption maximum)” value does the source give for `CCC(C)COc1ccc(-c2c3c(=C(C#N)c4nc5cc(C)ccc5s4)n(B(c4ccccc4)c4ccccc4)c(-c4ccc(OCC(C)CC)cc4)c3c(=C(C#N)c3nc4cc(C)ccc4s3)n2B(c2ccccc2)c2ccccc2)cc1` (centres unmarked) [A-4] here?
Answer: 785 nm

same assay, conditions: in dimethyl sulfoxide (DMSO)

Question: For `N#CC(c1nc2ccccc2s1)=c1c2c(-c3ccc(O)cc3)n(B(c3ccccc3)c3ccccc3)c(=C(C#N)c3nc4ccccc4s3)c2c(-c2ccc(O)cc2)n1B(c1ccccc1)c1ccccc1` [A-9], which “λmax (absorption maximum)” value is on record?
Answer: 782 nm

Question: Which “λmax (absorption maximum)” value does the source give for `N#CC(c1nc2cc(Cl)ccc2s1)=c1c2c(-c3ccc(O)cc3)n(B(c3ccccc3)c3ccccc3)c(=C(C#N)c3nc4cc(Cl)ccc4s3)c2c(-c2ccc(O)cc2)n1B(c1ccccc1)c1ccccc1` [A-10] here?
Answer: 782 nm

Question: Which “λmax (absorption maximum)” value does the source give for `COc1ccc2sc(C(C#N)=c3c4c(-c5ccc(O)cc5)n(B(c5ccccc5)c5ccccc5)c(=C(C#N)c5nc6cc(OC)ccc6s5)c4c(-c4ccc(O)cc4)n3B(c3ccccc3)c3ccccc3)nc2c1` [A-15] here?
Answer: 795 nm

Question: For `Cc1cc2nc(C(C#N)=c3c4c(-c5ccc(O)cc5)n(B(c5ccccc5)c5ccccc5)c(=C(C#N)c5nc6cc(C)c(C)cc6s5)c4c(-c4ccc(O)cc4)n3B(c3ccccc3)c3ccccc3)sc2cc1C` [A-14], which “λmax (absorption maximum)” value is on record?
Answer: 795 nm

experiment: Measurement of solubility in solvent at 25° C.; format: physicochemical; conditions: organic solvent or mixture, thermodynamic from solid; in propylene glycol monomethyl ether acetate and 2-butanol at 25° C.
Protocol: <Measurement of Solubility>
A measurement sample was added to a solvent at 25° C. under the atmospheric pressure, the solution was stirred for 1 hour, and the solubility of the measurement sample in the solvent was obtained.

Question: Which solubility at 1 h does the source give for `N#C/C(c1cnc2cc(Cl)c(Cl)cc2n1)=c1\c2c(-c3ccc(OC(=O)c4ccc5c(c4)C(=O)N(CCCS(=O)(=O)O)C5=O)cc3)n(B(c3ccccc3)c3ccccc3)/c(=C(/C#N)c3cnc4cc(Cl)c(Cl)cc4n3)c2c(-c2ccc(OC(=O)c3ccc4c(c3)C(=O)N(CCCS(=O)(=O)O)C4=O)cc2)n1B(c1ccccc1)c1ccccc1` [B-634] here?
Answer: < 100 µg/mL

Question: With `CCN(CC)CCCN1C(=O)c2ccc(C(=O)Oc3ccc(-c4c5/c(=C(\C#N)c6cnc7cc(Cl)c(Cl)cc7n6)n(B(c6ccccc6)c6ccccc6)c(-c6ccc(OC(=O)c7ccc8c(c7)C(=O)N(CCCN(CC)CC)C8=O)cc6)c5/c(=C(\C#N)c5cnc6cc(Cl)c(Cl)cc6n5)n4B(c4ccccc4)c4ccccc4)cc3)cc2C1=O` [B-644] as the compound, how does the solubility at 1 h read?
Answer: < 100 µg/mL
